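All cell lines were grown in 96-well plates and treated with compound for 48 hours. At the GI50, growth is halved. The concentration for full growth arrest is given as TGI.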
Key:
Test in all cases: inhibition of tumour cell growth, NCI panel, 48 h
A498 renal = tested on: A498 renal
HL-60(TB) leukemia = tested on: HL-60(TB) leukemia
NCI/ADR-RES ovarian = tested on: NCI/ADR-RES ovarian
SF-268 CNS = tested on: SF-268 CNS
KM12 colon = tested on: KM12 colon
SK-MEL-28 melanoma = tested on: SK-MEL-28 melanoma
786-0 renal = tested on: 786-0 renal
MCF7 breast = tested on: MCF7 breast
SK-OV-3 ovarian = tested on: SK-OV-3 ovarian
HCT-15 colon = tested on: HCT-15 colon
UO-31 renal = tested on: UO-31 renal
SK-MEL-2 melanoma = tested on: SK-MEL-2 melanoma
HOP-62 NSCLC = tested on: HOP-62 NSCLC
SNB-75 CNS = tested on: SNB-75 CNS
HT29 colon = tested on: HT29 colon
OVCAR-5 ovarian = tested on: OVCAR-5 ovarian
OVCAR-3 ovarian = tested on: OVCAR-3 ovarian
MDA-MB-435 = tested on: MDA-MB-435
HOP-92 NSCLC = tested on: HOP-92 NSCLC
SW-620 colon = tested on: SW-620 colon
NCI-H226 lung = tested on: NCI-H226 lung
MDA-MB-231 breast = tested on: MDA-MB-231 breast
MALME-3M melanoma = tested on: MALME-3M melanoma
DU-145 prostate = tested on: DU-145 prostate
K-562 leukemia = tested on: K-562 leukemia
T-47D breast = tested on: T-47D breast
M14 melanoma = tested on: M14 melanoma
ACHN renal = tested on: ACHN renal
LOX IMVI melanoma = tested on: LOX IMVI melanoma
NCI-H522 lung = tested on: NCI-H522 lung
OVCAR-8 ovarian = tested on: OVCAR-8 ovarian
SK-MEL-5 melanoma = tested on: SK-MEL-5 melanoma
MOLT-4 leukemia = tested on: MOLT-4 leukemia
COLO 205 colon = tested on: COLO 205 colon
UACC-257 melanoma = tested on: UACC-257 melanoma
HS 578T breast = tested on: HS 578T breast
BT-549 breast = tested on: BT-549 breast
IGROV1 ovarian = tested on: IGROV1 ovarian
NCI-H23 lung = tested on: NCI-H23 lung
OVCAR-4 ovarian = tested on: OVCAR-4 ovarian
CCRF-CEM leukemia = tested on: CCRF-CEM leukemia
A549 NSCLC = tested on: A549 NSCLC
SR leukemia = tested on: SR leukemia
RPMI-8226 leukemia = tested on: RPMI-8226 leukemia
SF-539 CNS = tested on: SF-539 CNS
HCT-116 colon = tested on: HCT-116 colon
RXF 393 renal = tested on: RXF 393 renal
TK-10 renal = tested on: TK-10 renal
PC-3 prostate = tested on: PC-3 prostate
SN12C renal = tested on: SN12C renal
SNB-19 CNS = tested on: SNB-19 CNS
UACC-62 melanoma = tested on: UACC-62 melanoma
HCC-2998 colon = tested on: HCC-2998 colon
CAKI-1 renal = tested on: CAKI-1 renal
U251 CNS = tested on: U251 CNS
NCI-H460 lung = tested on: NCI-H460 lung
EKVX NSCLC = tested on: EKVX NSCLC
SF-295 CNS = tested on: SF-295 CNS

## COc1ccc2[nH]c(C(=O)N3CCN(C(=O)OCc4ccc5c(Br)cc(Br)c(O)c5n4)CC3)cc2c1
A498 renal
  GI50: 1580 nM
  TGI: 2980 nM
HL-60(TB) leukemia
  GI50: 318 nM
  TGI: 1140 nM
NCI/ADR-RES ovarian
  GI50: 336 nM
  TGI: 1760 nM
SF-268 CNS
  GI50: 1200 nM
  TGI: 2740 nM
KM12 colon
  GI50: 1370 nM
  TGI: 2830 nM
SK-MEL-28 melanoma
  GI50: 448 nM
  TGI: 1510 nM
786-0 renal
  GI50: 270 nM
  TGI: 759 nM
MCF7 breast
  GI50: 262 nM
  TGI: 1180 nM
SK-OV-3 ovarian
  GI50: 1870 nM
  TGI: 3390 nM
HCT-15 colon
  GI50: 219 nM
  TGI: 596 nM
UO-31 renal
  GI50: 153 nM
  TGI: 323 nM
SK-MEL-2 melanoma
  GI50: 577 nM
  TGI: 1550 nM
HOP-62 NSCLC
  GI50: 1590 nM
  TGI: 3660 nM
SNB-75 CNS
  GI50: 735 nM
  TGI: 2160 nM
HT29 colon
  GI50: 318 nM
  TGI: 1030 nM
OVCAR-5 ovarian
  GI50: 603 nM
  TGI: 1980 nM
OVCAR-3 ovarian
  GI50: 197 nM
  TGI: 427 nM
MDA-MB-435
  GI50: 258 nM
  TGI: 695 nM
HOP-92 NSCLC
  GI50: 178 nM
  TGI: 860 nM
SW-620 colon
  GI50: 222 nM
  TGI: 507 nM
NCI-H226 lung
  GI50: 496 nM
  TGI: 1050 nM
MDA-MB-231 breast
  GI50: 388 nM
  TGI: 1390 nM
MALME-3M melanoma
  GI50: 1020 nM
  TGI: 2370 nM
DU-145 prostate
  GI50: 396 nM
  TGI: 1370 nM
K-562 leukemia
  GI50: 294 nM
  TGI: 978 nM
T-47D breast
  GI50: 1350 nM
  TGI: 4460 nM
M14 melanoma
  GI50: 262 nM
  TGI: 753 nM
ACHN renal
  GI50: 170 nM
  TGI: 335 nM
LOX IMVI melanoma
  GI50: 172 nM
  TGI: 334 nM
NCI-H522 lung
  GI50: 206 nM
  TGI: 546 nM
OVCAR-8 ovarian
  GI50: 277 nM
  TGI: 857 nM
SK-MEL-5 melanoma
  GI50: 620 nM
  TGI: 1770 nM
MOLT-4 leukemia
  GI50: 298 nM
  TGI: 966 nM
COLO 205 colon
  GI50: 193 nM
  TGI: 426 nM
UACC-257 melanoma
  GI50: 447 nM
  TGI: 1400 nM
HS 578T breast
  GI50: 1050 nM
  TGI: 4290 nM
BT-549 breast
  GI50: 213 nM
  TGI: 585 nM
IGROV1 ovarian
  GI50: 368 nM
  TGI: 1360 nM
NCI-H23 lung
  GI50: 1480 nM
  TGI: 3150 nM
OVCAR-4 ovarian
  GI50: 302 nM
  TGI: 972 nM
CCRF-CEM leukemia
  GI50: 238 nM
  TGI: 1630 nM
A549 NSCLC
  GI50: 1680 nM
  TGI: 3590 nM
SR leukemia
  GI50: 243 nM
  TGI: 1230 nM
RPMI-8226 leukemia
  GI50: 243 nM
  TGI: 809 nM
SF-539 CNS
  GI50: 926 nM
  TGI: 2250 nM
HCT-116 colon
  GI50: 178 nM
  TGI: 393 nM
RXF 393 renal
  GI50: 208 nM
  TGI: 575 nM
TK-10 renal
  GI50: 306 nM
  TGI: 1010 nM
PC-3 prostate
  GI50: 442 nM
  TGI: 1500 nM
SN12C renal
  GI50: 313 nM
  TGI: 1070 nM
SNB-19 CNS
  GI50: 1460 nM
  TGI: 2830 nM
UACC-62 melanoma
  GI50: 258 nM
  TGI: 749 nM
HCC-2998 colon
  GI50: 898 nM
  TGI: 2390 nM
CAKI-1 renal
  GI50: 244 nM
  TGI: 749 nM
U251 CNS
  GI50: 1290 nM
  TGI: 2590 nM
NCI-H460 lung
  GI50: 1360 nM
  TGI: 3140 nM
EKVX NSCLC
  GI50: 1370 nM
  TGI: 2930 nM
SF-295 CNS
  GI50: 1610 nM
  TGI: 3030 nM

Source: PubChem BioAssay (NCI)
